In ChEMBL document CHEMBL4837181 (Eur J Med Chem, 2020):
One block for each compound: values may come before it. Where a SMILES comes first, the peptide text is derived from it. [ ]: non-standard residue; d: D form. dTrp(1-Me) = Cn1cc(C[C@@H](N)C(=O)O)c2ccccc21

Columns and labels:
[1] = Change in AUC (infinity) in rat at 37 umol/kg, po measured upto 72 hrs by LC-MS/MS analysis; assay type: ADME, organism-based; conditions: in vivo, at 37 µmol/kg
[2] = Change in Cmax in rat at 37 umol/kg, po measured upto 72 hrs by LC-MS/MS analysis; assay type: ADME, organism-based; conditions: in vivo, at 37 µmol/kg
[3] = Stability in human plasma assessed as parent compound remaining measured after 6 hrs by LC-MS/MS analysis; assay type: ADME, cell-free; conditions: read-out: Stabilty
[4] = Chemical stability of compound in PBS buffer assessed as compound remaining at pH 7.4 at 5 uM measured after 24 hrs by LC-MS/MS analysis; assay type: physicochemical; conditions: read-out: Stabilty
[5] = Stability in human plasma assessed as parent compound remaining measured after 24 hrs by LC-MS/MS analysis; assay type: ADME, cell-free; conditions: read-out: Stabilty
[6] = Chemical stability of compound in simulated intestinal fluid assessed as compound remaining at 5 uM measured after 24 hrs by LC-MS/MS analysis; assay type: ADME, physicochemical; conditions: read-out: Stabilty
[7] = Chemical stability of compound in PBS buffer assessed as compound remaining at pH 7.4 at 5 uM measured after 6 hrs by LC-MS/MS analysis; assay type: physicochemical; conditions: read-out: Stabilty
[8] = Chemical stability of compound in saline assessed as compound remaining at 5 uM measured after 24 hrs by LC-MS/MS analysis; assay type: physicochemical; conditions: read-out: Stabilty
[9] = Dose normalized AUC (0 to infinity) in rat at 10 mg/kg, po measured upto 72 hrs by LC-MS/MS analysis; assay type: ADME, organism-based; conditions: in vivo
[10] = Stability in mouse plasma assessed as parent compound remaining measured after 2 hrs by LC-MS/MS analysis; assay type: ADME, cell-free; conditions: read-out: Stabilty
[11] = Chemical stability of compound in simulated intestinal fluid assessed as compound remaining at 5 uM measured after 3 hrs by LC-MS/MS analysis; assay type: ADME, physicochemical; conditions: read-out: Stabilty
[12] = Change in normalised AUCinfinity in rat at 10 mg/kg, po measured upto 72 hrs by LC-MS/MS analysis; assay type: ADME, organism-based; conditions: in vivo
[13] = Chemical stability of compound in simulated gastric fluid assessed as compound remaining at 5 uM measured after 24 hrs by LC-MS/MS analysis; assay type: ADME, physicochemical; conditions: read-out: Stabilty
[14] = Dose normalized Cmax in rat at 10 mg/kg, po measured upto 72 hrs by LC-MS/MS analysis; assay type: ADME, organism-based; conditions: in vivo
[15] = Chemical stability of compound in 0.1 N aqueous HCl buffer assessed as compound remaining at pH 1 at 5 uM measured after 1.5 hrs by LC-MS/MS analysis; assay type: physicochemical; conditions: pH 1, 1.5 h
[16] = Stability in rat plasma assessed as parent compound remaining measured after 2 hrs by LC-MS/MS analysis; assay type: ADME, cell-free; conditions: read-out: Stabilty
[17] = Change in normalised Cmax in rat at 10 mg/kg, po measured upto 72 hrs by LC-MS/MS analysis; assay type: ADME, organism-based; conditions: in vivo
[18] = Chemical stability of compound in simulated gastric fluid assessed as compound remaining at 5 uM measured after 1.5 hrs by LC-MS/MS analysis; assay type: ADME, physicochemical; conditions: read-out: Stabilty
[19] = Chemical stability of compound in 0.1 N aqueous HCl buffer assessed as compound remaining at pH 1 at 5 uM measured after 24 hrs by LC-MS/MS analysis; assay type: physicochemical; conditions: pH 1, 24 h

Structure (SMILES): Cn1cc(C[C@@H](N)C(=O)OCC2CCNCC2)c2ccccc21.O=P(O)(O)O
- Activity [1]: -64%
- Activity [2]: -79%

Structure (SMILES): Cn1cc(C[C@@H](N)C(=O)OCC(O)CO)c2ccccc21.O=S(=O)(O)O (some centres undefined)
- Activity [1]: 21%
- Activity [2]: 2%

Structure (SMILES): Cn1cc(C[C@@H](NC(=O)[C@@H](N)CCCCN)C(=O)O)c2ccccc21.O=S(=O)(O)O
- Activity [1]: 10%
- Activity [2]: -4%

Structure (SMILES): CCOC(=O)[C@@H](Cc1cn(C)c2ccccc12)NC(=O)[C@@H](N)CC(C)C.O=S(=O)(O)c1ccccc1
- Activity [1]: 45%
- Activity [2]: 29%

Structure (SMILES): CCOC(=O)[C@@H](Cc1cn(C)c2ccccc12)NC(=O)[C@@H](N)CCC(N)=O.O=P(O)(O)O
- Activity [1]: -28%
- Activity [2]: -32%

Structure (SMILES): Cn1cc(C[C@@H](NC(=O)[C@@H](N)CCCCN)C(=O)O)c2ccccc21.O=P(O)(O)O
- Activity [1]: -17%
- Activity [2]: 4%

Structure (SMILES): CCOC(=O)[C@@H](Cc1cn(C)c2ccccc12)NC(=O)[C@@H](N)CC(C)C.CS(=O)(=O)O
- Activity [1]: 127%
- Activity [2]: 111%

Other lines, results leading:

- remaining at 6 h [3]: 68%
- remaining at 24 h, 5 µM [4]: 37%
- remaining at 24 h [5]: 39%
- remaining at 24 h, 5 µM [6]: 64%
- remaining at 6 h, 5 µM [7]: 99%
- remaining at 24 h, 5 µM [8]: 98%
- AUC/dose [9]: 202 µM·h
- remaining at 2 h [10]: 89%
- remaining at 3 h, 5 µM [11]: 62%
- Activity [12]: -60%
- remaining at 24 h, 5 µM [13]: 49%
- Cmax/dose [14]: 1600 nM
- Stabilty [15]: 51%
- remaining at 2 h [16]: 100%
- Activity [17]: -91%
- remaining at 1.5 h, 5 µM [18]: 54%
- Stabilty [19]: 98%
Structure (SMILES): CC(C)C(NC(=O)[C@H](N)Cc1cn(C)c2ccccc12)C(=O)O.Cl (single isomer, unassigned)

- Activity [1]: 3%
- Activity [2]: -3%
Structure (SMILES): Cn1cc(C[C@@H](NC(=O)CN)C(=O)O)c2ccccc21.O=P(O)(O)O (H-Gly-[dTrp(1-Me)]-OH)

- Activity [1]: -27%
- Activity [2]: -27%
Structure (SMILES): CS(=O)(=O)O.Cn1cc(C[C@@H](N)C(=O)OCC(O)CO)c2ccccc21 (some centres undefined)

- Activity [1]: -20%
- Activity [2]: 20%
Structure (SMILES): CCOC(=O)[C@@H](Cc1cn(C)c2ccccc12)NC(=O)[C@@H](N)CCC(N)=O.O=S(=O)(O)O

- Activity [1]: -13%
- Activity [2]: -17%
Structure (SMILES): Cn1cc(C[C@@H](NC(=O)[C@@H](N)CCCCN)C(=O)O)c2ccccc21
